Test results taken from patent US6914045B2, “Glycopeptide antibiotics” (Wyeth Holdings Corporation, priority 2001, dated 2005).
Converted amounts (≈) assume the structure as drawn.

What was measured:
Assay in all cases: in vitro antibacterial evaluation, MIC by broth dilution
Format in all cases: cell-based
Streptococcus sp. = conditions: broth dilution, 18 hours at 35° C.
In short: (§1)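 Following National Committee for Clinical Laboratory Standards recommendations (M7-A2), susceptibility was measured by dilution in Muller-Hinton II […]. Bacteria were seeded at 5×10^5 CFU/mL against compound concentrations from 64 down to 0.06 μg/mL.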

Staphylococcus sp. = conditions: broth dilution, 18 hours at 35° C.
In short: as §1

Enterococcus sp. = conditions: broth dilution, 18 hours at 35° C.
In short: as §1

Escherichia coli = conditions: 18 hours at 35° C.

Compound: CC(c1ccccc1)C1NC(=O)CNC(=O)C(CO)NC(=O)C(C(O)C2CNC(=N)N2C2OC(CO)C(O)C(O)C2O)NC(=O)C(C(O)C2CNC(=N)N2)NC(=O)C(Cc2ccc(OC3OC(CO)C(OC4OC(COCC=C(c5ccccc5)c5ccccc5)C(O)C(O)C4O)C(O)C3O)cc2)NC1=O (stereo not shown) [Example 241]
- MIC Streptococcus agalactiae (GC 4564) (Streptococcus sp.): <0.06 µg/mL
- MIC Streptococcus pneumoniae (ATCC 6301) (Streptococcus sp.): <0.06 µg/mL
- MIC Streptococcus pneumoniae (GC 1894) (Streptococcus sp.): <0.06 µg/mL
- MIC Streptococcus pneumoniae (GC 4565) (Streptococcus sp.): <0.06 µg/mL
- MIC Streptococcus pyogenes (GC 4563) (Streptococcus sp.): <0.06 µg/mL
- MIC Streptococcus pneumoniae (ATCC 6301) (Streptococcus sp.; inoculum 5×10^5 CFU/mL, strain ATCC 6301): <0.06 µg/mL
- MIC Streptococcus pneumoniae (GC 1894) (Streptococcus sp.; inoculum 5×10^5 CFU/mL, strain GC 1894): <0.06 µg/mL
- MIC Streptococcus pyogenes (GC 4563) (Streptococcus sp.; inoculum 5×10^5 CFU/mL, strain GC 4563): <0.06 µg/mL
- MIC Streptococcus agalactiae (GC 4564) (Streptococcus sp.; inoculum 5×10^5 CFU/mL, strain GC 4564): <0.06 µg/mL
- MIC Streptococcus pneumoniae (GC 4565) (Streptococcus sp.; inoculum 5×10^5 CFU/mL, strain GC 4565): <0.06 µg/mL
- MIC Coagulase Negative Staphylococcus (GC 4547) (Staphylococcus sp.): 2 µg/mL (≈ 1.34 µM)
- MIC Coagulase Negative Staphylococcus (GC 4548) (Staphylococcus sp.): 1 µg/mL (≈ 0.672 µM)
- MIC Coagulase Negative Staphylococcus (GC 4549) (Staphylococcus sp.): 2 µg/mL (≈ 1.34 µM)
- MIC Coagulase Negative Staphylococcus (GC 4551) (Staphylococcus sp.): 4 µg/mL (≈ 2.69 µM)
- MIC Coagulase Negative Staphylococcus (GC 6257) (Staphylococcus sp.): 2 µg/mL (≈ 1.34 µM)
- MIC Staphylococcus aureus (ATCC 29213) (Staphylococcus sp.): 2 µg/mL (≈ 1.34 µM)
- MIC Staphylococcus aureus (GC 1131) (Staphylococcus sp.): 2 µg/mL (≈ 1.34 µM)
- MIC Staphylococcus aureus (GC 3051) (Staphylococcus sp.): 2 µg/mL (≈ 1.34 µM)
- MIC Staphylococcus aureus (GC 3053) (Staphylococcus sp.): 2 µg/mL (≈ 1.34 µM)
- MIC Staphylococcus aureus (GC 4541) (Staphylococcus sp.): 2 µg/mL (≈ 1.34 µM)
- MIC Staphylococcus aureus (GC 4542) (Staphylococcus sp.): 2 µg/mL (≈ 1.34 µM)
- MIC Staphylococcus aureus (GC 4544) (Staphylococcus sp.): 2 µg/mL (≈ 1.34 µM)
- MIC Staphylococcus aureus (GC 4545) (Staphylococcus sp.): 2 µg/mL (≈ 1.34 µM)
- MIC Staphylococcus aureus-SMITH (GC 4543) (Staphylococcus sp.): 2 µg/mL (≈ 1.34 µM)
- MIC Staphylococcus haemolyticus (GC 4546) (Staphylococcus sp.): 2 µg/mL (≈ 1.34 µM)
- MIC Staphylococcus aureus (ATCC 29213) (Staphylococcus sp.; strain ATCC 29213): 2 µg/mL (≈ 1.34 µM)
- MIC Staphylococcus aureus (GC 1131) (Staphylococcus sp.; strain GC 1131): 2 µg/mL (≈ 1.34 µM)
- MIC Staphylococcus aureus (GC 3051) (Staphylococcus sp.; strain GC 3051): 2 µg/mL (≈ 1.34 µM)
- MIC Staphylococcus aureus (GC 3053) (Staphylococcus sp.; strain GC 3053): 2 µg/mL (≈ 1.34 µM)
- MIC Staphylococcus aureus (GC 4541) (Staphylococcus sp.; strain GC 4541): 2 µg/mL (≈ 1.34 µM)
- MIC Staphylococcus aureus (GC 4542) (Staphylococcus sp.; strain GC 4542): 2 µg/mL (≈ 1.34 µM)
- MIC Staphylococcus aureus-SMITH (GC 4543) (Staphylococcus sp.; strain GC 4543): 2 µg/mL (≈ 1.34 µM)
- MIC Staphylococcus aureus (GC 4544) (Staphylococcus sp.; strain GC 4544): 2 µg/mL (≈ 1.34 µM)
- MIC Staphylococcus aureus (GC 4545) (Staphylococcus sp.; strain GC 4545): 2 µg/mL (≈ 1.34 µM)
- MIC Staphylococcus haemolyticus (GC 4546) (Staphylococcus sp.; strain GC 4546): 2 µg/mL (≈ 1.34 µM)
- MIC Coagulase Negative Staphylococcus (GC 4547) (Staphylococcus sp.; strain GC 4547): 2 µg/mL (≈ 1.34 µM)
- MIC Coagulase Negative Staphylococcus (GC 4548) (Staphylococcus sp.; strain GC 4548): 1 µg/mL (≈ 0.672 µM)
- MIC Coagulase Negative Staphylococcus (GC 4549) (Staphylococcus sp.; strain GC 4549): 2 µg/mL (≈ 1.34 µM)
- MIC Coagulase Negative Staphylococcus (GC 4551) (Staphylococcus sp.; strain GC 4551): 4 µg/mL (≈ 2.69 µM)
- MIC Coagulase Negative Staphylococcus (GC 6257) (Staphylococcus sp.; strain GC 6257): 2 µg/mL (≈ 1.34 µM)
- MIC Enterococcus avium (GC 4558) (Enterococcus sp.): 4 µg/mL (≈ 2.69 µM)
- MIC Enterococcus faecalis (ATCC 29212) (Enterococcus sp.): 4 µg/mL (≈ 2.69 µM)
- MIC Enterococcus faecalis (GC 2242) (Enterococcus sp.): 4 µg/mL (≈ 2.69 µM)
- MIC Enterococcus faecalis (GC 2691) (Enterococcus sp.): 4 µg/mL (≈ 2.69 µM)
- MIC Enterococcus faecalis (GC 3059) (Enterococcus sp.): 2 µg/mL (≈ 1.34 µM)
- MIC Enterococcus faecalis (GC 4552) (Enterococcus sp.): 4 µg/mL (≈ 2.69 µM)
- MIC Enterococcus faecalis (GC 4553) (Enterococcus sp.): 4 µg/mL (≈ 2.69 µM)
- MIC Enterococcus faecalis (GC 4554) (Enterococcus sp.): 4 µg/mL (≈ 2.69 µM)
- MIC Enterococcus faecalis (GC 6189) (Enterococcus sp.): 2 µg/mL (≈ 1.34 µM)
- MIC Enterococcus faecium (GC 2243) (Enterococcus sp.): 4 µg/mL (≈ 2.69 µM)
- MIC Enterococcus faecium (GC 4556) (Enterococcus sp.): 4 µg/mL (≈ 2.69 µM)
- MIC Enterococcus faecium (GC 4557) (Enterococcus sp.): 2 µg/mL (≈ 1.34 µM)
- MIC Enterococcus faecalis (ATCC 29212) (Enterococcus sp.; strain ATCC 29212): 4 µg/mL (≈ 2.69 µM)
- MIC Enterococcus faecium (GC 2243) (Enterococcus sp.; strain GC 2243): 4 µg/mL (≈ 2.69 µM)
- MIC Enterococcus faecalis (GC 4552) (Enterococcus sp.; strain GC 4552): 4 µg/mL (≈ 2.69 µM)
- MIC Enterococcus faecalis (GC 4553) (Enterococcus sp.; strain GC 4553): 4 µg/mL (≈ 2.69 µM)
- MIC Enterococcus faecalis (GC 4554) (Enterococcus sp.; strain GC 4554): 4 µg/mL (≈ 2.69 µM)
- MIC Enterococcus faecium (GC 4556) (Enterococcus sp.; strain GC 4556): 4 µg/mL (≈ 2.69 µM)
- MIC Enterococcus faecium (GC 4557) (Enterococcus sp.; strain GC 4557): 2 µg/mL (≈ 1.34 µM)
- MIC Enterococcus avium (GC 4558) (Enterococcus sp.; strain GC 4558): 4 µg/mL (≈ 2.69 µM)
- MIC Enterococcus faecalis (GC 6189) (Enterococcus sp.; strain GC 6189): 2 µg/mL (≈ 1.34 µM)
- MIC Enterococcus faecalis (GC 2242) (Enterococcus sp.; inoculum 5×10^5 CFU/mL, strain GC 2242): 4 µg/mL (≈ 2.69 µM)
- MIC Enterococcus faecalis (GC 2691) (Enterococcus sp.; inoculum 5×10^5 CFU/mL, strain GC 2691): 4 µg/mL (≈ 2.69 µM)
- MIC Enterococcus faecalis (GC 3059) (Enterococcus sp.; inoculum 5×10^5 CFU/mL, strain GC 3059): 2 µg/mL (≈ 1.34 µM)
- MIC Escherichia coli (ATCC 25922) (Escherichia coli): >64 µg/mL
- MIC Escherichia coli (GC 4559) (Escherichia coli): >64 µg/mL
- MIC Escherichia coli (GC 4560) (Escherichia coli): 2 µg/mL (≈ 1.34 µM)
